What was measured:
[1] = stress-induced erosion test (Senay & Levine), anti-ulcer activity; type: in vivo; conditions: Dose 100 mg/kg
Description: (§1) Anti-ulcer activity was determined by the stress-induced erosion test of Senay & Levine, Proc. Soc. Exp. Biol. Med., 124, 1221-3(1967) and anti-secretory activity by the test of H. Shay, D. Sun and H. Greenstein, Gastroenterology, 1954, 26,903-13 as exemplified by Beattie et al in J. Med Chem, 20,714 (1977).

[2] = anti-secretory activity test (Shay et al); type: in vivo
Description: as §1

Row | Compound | Stress Induced erosion (Senay & Levine) % inhibition [1] | Anti-Secretory (Shay et al) % change in volt ([2]; Dose 10 mg/kg) | Anti-Secretory (Shay et al) % change in volt ([2]; Dose 30 mg/kg)
1 | C[n+]1ccccc1SCSc1cccc[n+]1C [Example 1, Methylene bis((1-methylpyridinium-2-yl)-thio) diiodide] | 71% | -32% | -62%
2 | C[n+]1ccccc1SCCSc1cccc[n+]1C [Example 2, 1,2-Di-((1-methylpyridinium-2-yl)thio)ethane dibromide] | 67% | – | -48%

Reference: patent publication US4288439A, “Anti-ulcer treatment method” (priority 1978, dated 1981)
